Assay results taken from the supplement of paper PMC10307832.

Legend:
Assay in all cases: relative viability (nuclei count vs DMSO), 5 days (fraction); higher = more cells survive
[1] = compound: CN(C)CC1=CC(=CC=C1)N=C(C2=CC=CC=C2)C3=C(NC4=C3C=CC(=C4)C(=O)N(C)C)O + Nc1ncn([C@H]2C[C@H](O)[C@@H](CO)O2)c(=O)n1 [Decitabine] (partner 2 µM)
Method in brief: (§1)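 Relative viability is defined as nuclei in treated wells over nuclei in vehicle wells. Duplicate plates were run and medians reported. Lung cancer cell lines in 1536-well plates were dosed by pin tool one day after seeding, with one drug or with a fixed anchor-drug dose plus five library-drug doses (not always all listed) in √10 steps, and nuclei were counted after 5 days.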

[2] = compound: CN(C)CC1=CC(=CC=C1)N=C(C2=CC=CC=C2)C3=C(NC4=C3C=CC(=C4)C(=O)N(C)C)O + NC(=O)Nc1cc(-c2cccc(F)c2)sc1C(=O)N[C@H]1CCCNC1 [AZD7762] (partner 0.2 µM)
Method in brief: as §1

[3] = compound: CN(C)CC1=CC(=CC=C1)N=C(C2=CC=CC=C2)C3=C(NC4=C3C=CC(=C4)C(=O)N(C)C)O + CS(=O)(=O)CCNCc1ccc(-c2ccc3ncnc(Nc4ccc(OCc5cccc(F)c5)c(Cl)c4)c3c2)o1 [Lapatinib] (partner 2 µM)
Method in brief: as §1

[4] = compound: CN(C)CC1=CC(=CC=C1)N=C(C2=CC=CC=C2)C3=C(NC4=C3C=CC(=C4)C(=O)N(C)C)O + CC(C)C[C@H](NC(=O)[C@H](Cc1ccccc1)NC(=O)c1cnccn1)B(O)O [Bortezomib] (partner 0.002 µM)
Method in brief: as §1

| Cell Line | relative viability ([1]; first compound 0.08 µM) | relative viability ([1]; first compound 0.253 µM) | relative viability ([1]; first compound 0.8 µM) | relative viability ([1]; first compound 2.53 µM) | relative viability ([1]; first compound 8 µM) | relative viability ([2]; first compound 0.08 µM) | relative viability ([2]; first compound 0.253 µM) | relative viability ([2]; first compound 0.8 µM) | relative viability ([2]; first compound 2.53 µM) | relative viability ([2]; first compound 8 µM) | relative viability ([3]; first compound 0.08 µM) | relative viability ([3]; first compound 0.253 µM) | relative viability ([3]; first compound 0.8 µM) | relative viability ([3]; first compound 2.53 µM) | relative viability ([3]; first compound 8 µM) | relative viability ([4]; first compound 0.08 µM) | relative viability ([4]; first compound 0.253 µM) | relative viability ([4]; first compound 0.8 µM) | relative viability ([4]; first compound 2.53 µM) | relative viability ([4]; first compound 8 µM) |
| --- | --- | --- | --- | --- | --- | --- | --- | --- | --- | --- | --- | --- | --- | --- | --- | --- | --- | --- | --- | --- |
| PC-3 [JPC-3] | 0.761 | 0.763 | 0.804 | 0.837 | 0.842 | 0.872 | 0.938 | 0.753 | 0.806 | 1.02 | 0.436 | 0.458 | 0.435 | 0.465 | 0.444 | 0.856 | 0.826 | 0.759 | 0.886 | 0.866 |
| PC-14 | 0.254 | 0.214 | 0.213 | 0.236 | 0.25 | 0.392 | 0.395 | 0.377 | 0.387 | 0.411 | 0.33 | 0.264 | 0.38 | 0.313 | 0.311 | 0.989 | 0.839 | 0.89 | 0.767 | 1.06 |
| RERF-LC-KJ | 0.746 | 0.644 | 0.801 | 0.671 | 0.713 | 1.02 | 1 | 0.796 | 1.05 | 0.866 | 0.917 | 0.882 | 0.834 | 0.793 | 0.859 | 1.36 | 1.12 | 1.07 | 1.01 | 1.02 |
